Patent publication US20140073694A1, “CYSTAMINE ANALOGUES FOR THE TREATMENT OF PARKINSON'S DISEASE” (UNIVERSITE LAVAL, priority 2011, published 2014)

Key:
6-OHDA lesioned mice = assay: Unilateral striatal 6-OHDA mouse model, neurorescue experiment; assay type: in vivo, C57BL/6 mice; conditions: 10 mg/kg daily for 14 days from 3 days post-lesion
Experimental: Young adult (9-week old, 25 grams) male C57BL/6 mice were purchased from Charles River Laboratories (Montréal, QC, Canada). Animals were housed 4 per cage under standard conditions with free access to food and water, randomized and handled under the same conditions by one investigator. All experiments were performed in accordance with the Canadian Council on Animal Care and were approved by the Institutional Committee of the Centre Hospitalier de l'Université Laval (CHUL). Throughout the experiment, the health status of all mice included in the study was closely monitored for weight loss or other signs of health-related issues. All efforts were made to minimize animal pain and discomfort.
This protocol was based on the unilateral stereotaxic intra-striatal injection of 6-hydroxydopamine (6-OHDA). Intrastriatal administration of 6-OHDA creates a progressive and retrograde degenerative changes in DA neurons of the substantia nigra (Bjorklund et al., 1997; Costantini et al., 2001). Mice were anaesthetized using isoflurane and placed onto a stereotactic frame adapted for mice. 6-OHDA was dissolved at a concentration of 2 μg/μl in 0.9% saline and 0.02% ascorbic acid and 2 μl was injected in the right striatum at a rate of 0.5 μl/min. The needle was left in place for 3 min after the injection before retraction. The injection was performed using an Hamilton syringe according to the stereotaxic co-ordinates: AP: +0.04 cm, ML: −0.18 cm, DV: −0.31 cm (corresponding to the atlas of Allan P. 2008).
To serve as controls, other mice were subjected to the same surgical procedures, but only 2 μl of solvent (0.9% saline and 0.02% ascorbic acid) was injected in the same coordinates. […]
The effects of cystamine on the 6-OHDA toxicity were studied in the following experimental groups: Group I, Sham+Saline; Group II, 6-OHDA+Saline; Group III; Sham+Cystamine; Group IV, 6-OHDA+Cystamine. In total, 40 mice (n=10 per group) were utilized for each experiment, monitored daily for weight variation, and ultimately sacrificed by perfusion 24 hrs after the last cystamine (or vehicle) injection. […]
Catecholamine quantification by HPLC, TH immunohistochemistry and in situ hybridization for Nurr1 and DAT were conducted as described in Example 1.
Levels of autoradiographic labelling were quantified by computerized densitometry. […] Optical density of the autoradiograms was translated in μCi/g of tissue using ^14C radioactivity standards (ARC 146-^14C standards, American Radiolabelled Chemicals Inc., St. Louis, Mo.). Nurr1 and DAT mRNA levels were measured in the substantia nigra compacta (SNc) using similar antero-posterior levels for all sections. […]

[1] = parameters: species or system C57BL/6 mice; conditions: in vivo, ip, 200 mg/kg
Experimental: Young adult (9-week old, 25 g) male C57BL/6 mice were purchased from Charles River Laboratories (Montréal, QC, Canada). Animals were housed four per cage under standard conditions with free access to food and water, randomized and handled under the same conditions by one investigator. All experiments were performed in accordance with the Canadian Council on Animal Care and were approved by the Institutional Committee of the Centre Hospitalier de l'Université Laval (CHUL). Throughout the experiment, the health status of all mice included in the study was closely monitored. To clearly identify the active intermediate following cystamine injection, as well as to understand its systemic and cerebral metabolism, a single intraperitoneal (i.p.) injection of cystamine was administered to normal adult C57BL/6 male mice using three different doses: 10, 50, and 200 mg/kg, as determined in prior publications (Tremblay et al. 2006; Gibrat et al. 2010). These doses were ultimately compared with saline injections. Cystamine was dissolved in sterile saline (0.9%) and injected 1, 3, 12, 24 and 48 h before killing. Animals were sacrificed under deep anesthesia with ketamine/xylazine and perfused via intracardiac infusion with 0.1 M phosphate-buffered saline. […]

Compound: NCCSSCCN [cystamine, Cystamine]
- DAT mRNA levels in the SNpc (densitometry) (6-OHDA lesioned mice): same pattern as observed for the TH staining
- Nurr1 mRNA levels in the SNpc (densitometry) (6-OHDA lesioned mice): same pattern as observed for the TH staining
- striatal DA content by HPLC (6-OHDA lesioned mice; vs control mice): significantly decreased levels of DA only in 6-OHDA mice treated with saline
- decrease in the total number of TH-positive neurons in the SNpc (6-OHDA lesioned mice; 6-OHDA+cystamine vs sham+cystamine): 27%
- duration of hypothermia and somnolence signs ([1]; male, C57BL/6, mouse): approximately 2 h
- clinical signs ([1]; mouse): signs of hypothermia (shivering) and somnolence (closing of eyelids)
